Source: ChEMBL document CHEMBL5537169, “Structure-Activity Relationships and Discovery of (S)-6-Isopropyl-2-methoxy-3-(3-methoxypropoxy)-10-oxo-5,10-dihydro-6H-pyrido[1,2-h][1,7]naphthyridine-9-carboxylic Acid (AB-452), a Novel Orally Available HBV RNA Destabilizer” (J Med Chem, 2024)
Values after ≈ are worked out from the molar mass of the structure shown.

Tests used:
[1] = Drug accumulation in CD-1 mouse plasma assessed as fold change in drug uptake at 10 mg/kg,po measured at 0.083 to 24 hrs post administration by LC-MS/MS analysis; assay type: ADME, organism-based; conditions: in vivo, time 0.083-24 hrs
[2] = Kinetic solubility of compound in PBS at pH 7.4 incubated for 24 hrs by UPLC-UV analysis; assay type: physicochemical; conditions: read-out: Kinetic_solubility
[3] = Cmax in CD-1 mouse at 2 mg/kg,iv measured at 0.083 to 24 hrs post administration by LC-MS/MS analysis; assay type: ADME, organism-based; conditions: in vivo, time 0.083-24 hrs
[4] = Cmax in Sprague-Dawley rat at 2 mg/kg,iv measured at 0.083 to 24 hrs post administration by LC-MS/MS analysis; assay type: ADME, organism-based; conditions: in vivo, time 0.083-24 hrs
[5] = Apparent volume of distribution at steady state in CD-1 mouse at 2 mg/kg,iv measured at 0.083 to 24 hrs post administration by LC-MS/MS analysis; assay type: ADME, organism-based; conditions: in vivo, time 0.083-24 hrs, read-out: Vdss(app)
[6] = Drug accumulation in CD-1 mouse liver assessed as fold change in drug uptake at 10 mg/kg,po measured at 0.083 to 24 hrs post administration by LC-MS/MS analysis; assay type: ADME, organism-based; conditions: in vivo, time 0.083-24 hrs
[7] = Drug accumulation in Sprague-Dawley rat liver assessed as fold change in drug uptake at 10 mg/kg,po measured at 0.083 to 24 hrs post administration by LC-MS/MS analysis; assay type: ADME, organism-based; conditions: in vivo, time 0.083-24 hrs
[8] = AUCinfinity in Sprague-Dawley rat at 2 mg/kg,iv measured at 0.083 to 24 hrs post administration by LC-MS/MS analysis; assay type: ADME, organism-based; conditions: Sprague-Dawley, in vivo, time 0.083-24 hrs
[9] = Half life in Sprague-Dawley rat at 2 mg/kg,iv measured at 0.083 to 24 hrs post administration by LC-MS/MS analysis; assay type: ADME, organism-based; conditions: in vivo, time 0.083-24 hrs
[10] = Cardiotoxicity in Langendorff-perfused New Zealand White rabbit heart assessed as increase in QRS interval incubated for 45 mins by ECG analysis; assay type: toxicity, tissue-based, Oryctolagus cuniculus; conditions: 0.75 h
[11] = Clearance in Sprague-Dawley rat at 2 mg/kg,iv measured at 0.083 to 24 hrs post administration by LC-MS/MS analysis; assay type: ADME, organism-based; conditions: in vivo, time 0.083-24 hrs
[12] = Cmax in Beagle dog at 10 mg/kg,po measured at 0.083 to 24 hrs post administration by LC-MS/MS analysis; assay type: ADME, organism-based, Canis lupus familiaris; conditions: in vivo, time 0.083-24 hrs
[13] = Apparent volume of distribution at steady state in Sprague-Dawley rat at 2 mg/kg,iv measured at 0.083 to 24 hrs post administration by LC-MS/MS analysis; assay type: ADME, organism-based; conditions: in vivo, time 0.083-24 hrs, read-out: Vdss(app)
[14] = Half life in CD-1 mouse at 2 mg/kg,iv measured at 0.083 to 24 hrs post administration by LC-MS/MS analysis; assay type: ADME, organism-based; conditions: in vivo, time 0.083-24 hrs
[15] = Drug accumulation in Sprague-Dawley rat plasma assessed as fold change in drug uptake at 10 mg/kg,po measured at 0.083 to 24 hrs post administration by LC-MS/MS analysis; assay type: ADME, organism-based; conditions: in vivo, time 0.083-24 hrs
[16] = AUCinfinity in CD-1 mouse at 2 mg/kg,iv measured at 0.083 to 24 hrs post administration by LC-MS/MS analysis; assay type: ADME, organism-based; conditions: in vivo, time 0.083-24 hrs
[17] = Cmax in Sprague-Dawley rat at 10 mg/kg,po measured at 0.083 to 24 hrs post administration by LC-MS/MS analysis; assay type: ADME, organism-based; conditions: Sprague-Dawley, in vivo, time 0.083-24 hrs, read-out: Cmax
[18] = Half life in CD-1 mouse at 10 mg/kg,po measured at 0.083 to 24 hrs post administration by LC-MS/MS analysis; assay type: ADME, organism-based; conditions: in vivo, time 0.083-24 hrs
[19] = Cardiotoxicity in Langendorff-perfused New Zealand White rabbit heart assessed as increase in PR interval incubated for 45 mins by ECG analysis; assay type: toxicity, tissue-based, Oryctolagus cuniculus; conditions: 0.75 h
[20] = Toxicity in dog assessed as NOAEL administrated for 28 days; design: species or system Canis lupus familiaris; conditions: in vivo, time 28 day
[21] = Cardiotoxicity in Langendorff-perfused New Zealand White rabbit heart assessed as increase in PR interval upto 10 uM incubated for 45 mins by ECG analysis; assay type: toxicity, tissue-based, Oryctolagus cuniculus; conditions: 0.75 h
HepG2 2.2.15 = assay: Cytotoxicity against human HepG2.2.15 cells by Cell-titer Glo luminescent assay; assay type: functional
[22] = Efflux ratio of apparent permeability from […] in human Caco-2 cells incubated for 120 mins by LC-MS/MS analysis; assay type: ADME, cell-based; conditions: caco-2, 2 h
[23] = Kinetic solubility of compound in PBS at pH 4 incubated for 24 hrs by UPLC-UV analysis; assay type: physicochemical; conditions: read-out: Kinetic_solubility
[24] = Toxicity in rat assessed as NOAEL administrated for 28 days; conditions: in vivo, time 28 day
Hepatitis B virus [25] = assay: Antiviral activity against AAV-Hepatitis B virus infected in C57BL/6 mouse assessed as serum HBsAg level at 10 mg/kg,po administrated once daily for 7 days by enzyme-linked immunoassay; assay type: functional; conditions: time 7 day
Cytochrome P450 3A4 = Cytochrome P450 3A4 (Homo sapiens, UniProt P08684); assay: Reversible inhibition of CYP3A4 in human liver microsomes using midazolam as substrate pre-incubated for 30 mins followed by NADPH addition and measured after 10 mins by LC-MS/MS analysis; assay type: ADME, Microsome
Hepatitis B virus [26] = assay: Antiviral activity against AAV-Hepatitis B virus infected in human Primary hepatocyte assessed as reduction in HBV DNA level measured after 16 days by ELISA; assay type: functional, organism-based; conditions: 384 h
Hepatitis B virus [27] = assay: Antiviral activity against AAV-Hepatitis B virus infected in C57BL/6 mouse assessed as serum HBsAg level at 3 mg/kg,po administrated once daily for 7 days by enzyme-linked immunoassay; assay type: functional; conditions: time 7 day
Cytochrome P450 2C9 = Cytochrome P450 2C9 (Homo sapiens, UniProt P11712); assay: Reversible inhibition of CYP2C9 in human liver microsomes using diclofenac as substrate pre-incubated for 30 mins followed by NADPH addition and measured after 10 mins by LC-MS/MS analysis; assay type: ADME, Microsome
[28] = Cardiotoxicity in Langendorff-perfused New Zealand White rabbit heart assessed as increase in QRS interval upto 10 uM incubated for 45 mins by ECG analysis; assay type: toxicity, tissue-based, Oryctolagus cuniculus; conditions: 0.75 h
Hepatitis B virus [29] = assay: Antiviral activity against AAV-Hepatitis B virus infected in human Primary hepatocyte assessed as reduction in HBsAg level measured after 16 days by ELISA; assay type: functional, organism-based; conditions: 384 h
[30] = Clearance in Beagle dog at 2 mg/kg,iv measured at 0.083 to 24 hrs post administration by LC-MS/MS analysis; assay type: ADME, organism-based, Canis lupus familiaris; conditions: in vivo, time 0.083-24 hrs
Cytochrome P450 2D6 = Cytochrome P450 2D6 (Homo sapiens, UniProt P10635); assay: Reversible inhibition of CYP2D6 in human liver microsomes using dextromethorphan as substrate pre-incubated for 30 mins followed by NADPH addition and measured after 10 mins by LC-MS/MS analysis; assay type: ADME, Microsome
[31] = Tmax in Sprague-Dawley rat at 10 mg/kg,po measured at 0.083 to 24 hrs post administration by LC-MS/MS analysis; assay type: ADME, organism-based; conditions: Sprague-Dawley, in vivo, time 0.083-24 hrs, read-out: Tmax
[32] = Drug accumulation in Sprague-Dawley rat liver at 10 mg/kg,po measured at 0.083 to 24 hrs post administration by LC-MS/MS analysis; assay type: ADME, organism-based; conditions: in vivo, time 0.083-24 hrs
[33] = Apparent volume of distribution at steady state in CD-1 mouse at 10 mg/kg,po measured at 0.083 to 24 hrs post administration by LC-MS/MS analysis; assay type: ADME, organism-based; conditions: in vivo, time 0.083-24 hrs

Cytochrome P450 2C9, sequence (P11712 whole entry, the tested form may be a part): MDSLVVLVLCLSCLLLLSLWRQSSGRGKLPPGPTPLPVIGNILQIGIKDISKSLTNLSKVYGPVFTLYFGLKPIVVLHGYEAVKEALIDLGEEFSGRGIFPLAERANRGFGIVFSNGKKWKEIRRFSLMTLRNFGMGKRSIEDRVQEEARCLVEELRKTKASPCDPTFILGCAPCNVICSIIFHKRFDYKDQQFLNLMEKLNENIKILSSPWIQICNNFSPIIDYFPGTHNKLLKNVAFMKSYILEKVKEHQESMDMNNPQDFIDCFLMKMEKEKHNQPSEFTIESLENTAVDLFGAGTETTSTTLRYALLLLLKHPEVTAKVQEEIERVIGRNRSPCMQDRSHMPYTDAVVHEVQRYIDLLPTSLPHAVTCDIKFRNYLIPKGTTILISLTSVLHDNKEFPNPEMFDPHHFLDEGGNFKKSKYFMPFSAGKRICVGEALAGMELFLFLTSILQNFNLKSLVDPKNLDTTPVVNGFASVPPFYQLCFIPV
Cytochrome P450 3A4, sequence (P08684 whole entry): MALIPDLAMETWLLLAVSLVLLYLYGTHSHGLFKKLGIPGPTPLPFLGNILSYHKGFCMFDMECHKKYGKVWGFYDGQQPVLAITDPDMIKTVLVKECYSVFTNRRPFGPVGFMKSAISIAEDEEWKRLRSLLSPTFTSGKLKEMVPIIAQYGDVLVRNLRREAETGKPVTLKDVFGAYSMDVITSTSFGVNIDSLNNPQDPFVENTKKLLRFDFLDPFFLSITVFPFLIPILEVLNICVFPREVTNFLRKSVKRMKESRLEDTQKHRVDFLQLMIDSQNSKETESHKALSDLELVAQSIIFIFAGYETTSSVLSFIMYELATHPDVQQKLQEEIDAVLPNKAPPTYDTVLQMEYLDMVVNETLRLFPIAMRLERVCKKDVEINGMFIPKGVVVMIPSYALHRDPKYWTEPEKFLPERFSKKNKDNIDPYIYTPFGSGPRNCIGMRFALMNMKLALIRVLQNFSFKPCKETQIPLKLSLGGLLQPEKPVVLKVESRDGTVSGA
Cytochrome P450 2D6, sequence (P10635 whole entry): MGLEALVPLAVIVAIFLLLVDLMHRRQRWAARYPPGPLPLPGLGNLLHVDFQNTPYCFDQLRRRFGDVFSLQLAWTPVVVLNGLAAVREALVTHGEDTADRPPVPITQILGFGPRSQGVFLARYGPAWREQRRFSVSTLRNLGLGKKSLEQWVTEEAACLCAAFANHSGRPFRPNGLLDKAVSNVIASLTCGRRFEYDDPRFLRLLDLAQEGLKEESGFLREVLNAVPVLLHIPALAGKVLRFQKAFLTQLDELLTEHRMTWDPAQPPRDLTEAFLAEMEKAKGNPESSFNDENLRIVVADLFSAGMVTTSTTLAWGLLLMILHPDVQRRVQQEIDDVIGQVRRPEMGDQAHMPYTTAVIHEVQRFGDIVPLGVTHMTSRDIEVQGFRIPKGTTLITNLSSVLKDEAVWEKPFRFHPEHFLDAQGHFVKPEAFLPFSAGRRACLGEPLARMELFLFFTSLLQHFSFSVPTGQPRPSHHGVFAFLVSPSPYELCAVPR

COCCCOc1cc2c(cc1OC)-c1cc(=O)c(C(=O)O)cn1[C@H](C(C)C)C2
fold change (FC) [1]: < 1 | solubility kinetic at 24 h [2]: 190 µM (≈ 76.3 µg/mL) | Cmax [3]: 1150 ng/mL | Cmax [4]: 4950 ng/mL | Vd [5]: 1.2 L/kg | fold change (FC) [6]: < 1 | fold change (FC) [7]: 12 | AUC(0-inf) [8]: 4760 ng·h/mL | half-life [9]: 1.3 h | Activity [10]: Toxic | clearance [11]: 8.6 mL/min/kg | Cmax [12]: 4030 ng/mL | Vd [13]: 0.7 L/kg | half-life [14]: 1 h | fold change (FC) [15]: 3.4 | AUC(0-inf) [16]: 1280 ng·h/mL | Cmax [17]: 1190 ng/mL | half-life [18]: 2 h | Activity [19]: Toxic

COCCCOc1cc2c(nc1OC)-c1cc(=O)c(C(=O)O)cn1[C@H](C(C)C)C2
NOAEL at 672 h [20]: 30 mg/kg | Activity [21]: Non-Toxic | fold change (FC) [1]: 8.6 | solubility kinetic at 24 h [2]: > 200 µM | Cmax [3]: 1180 ng/mL | CC50 (HepG2 2.2.15): > 50 µM | Ratio [22]: 3.8 | Cmax [4]: 3240 ng/mL | Vd [5]: 1.5 L/kg | solubility kinetic at 24 h [23]: > 200 µM | fold change (FC) [6]: 2.6 | NOAEL at 672 h [24]: 150 mg/kg | fold change (FC) [7]: 28 | AUC(0-inf) [8]: 3500 ng·h/mL | Activity (Hepatitis B virus [25]): 1.64 log10CFU | IC50 (Cytochrome P450 3A4): > 25 µM | half-life [9]: 1.3 h | EC50 (Hepatitis B virus [26]): 0.003 µM | Activity (Hepatitis B virus [27]): 0.74 log10CFU | IC50 (Cytochrome P450 2C9): > 25 µM | clearance [11]: 9.6 mL/min/kg | Cmax [12]: 6740 ng/mL | Vd [13]: 0.7 L/kg | Activity [28]: Non-Toxic | half-life [14]: 0.9 h | EC50 (Hepatitis B virus [29]): 0.003 µM | fold change (FC) [15]: 8.7 | AUC(0-inf) [16]: 1150 ng·h/mL | Cmax [17]: 1540 ng/mL | clearance [30]: 5.4 mL/min/kg | half-life [18]: 5.8 h | IC50 (Cytochrome P450 2D6): > 25 µM

COCCCOc1cc2c(cc1Cl)-c1cc(=O)c(C(=O)O)cn1[C@H](C(C)C)CO2
solubility kinetic at 24 h [2]: > 200 µM | CC50 (HepG2 2.2.15): 39 µM | Ratio [22]: 1.5 | Tmax [31]: 2.1 h | solubility kinetic at 24 h [23]: 31 µM (≈ 13.1 µg/mL) | Ct [32]: 29 ng/g | Vdss(app) [33]: 1.1 L/kg | IC50 (Cytochrome P450 3A4): > 25 µM | IC50 (Cytochrome P450 2C9): > 25 µM | Activity [10]: Toxic | Cmax [12]: 3130 ng/mL | clearance [30]: 10 mL/min/kg | half-life [18]: 1.2 h | IC50 (Cytochrome P450 2D6): > 25 µM | Activity [19]: Toxic
